Test results from the NIST ThermoML archive (doi:10.1016/j.jct.2004.11.016).

Assay: xn = mol fraction of the nth substance listed
Settings: Liquid; for mass density: 101.3 kPa; for viscosity: 101 kPa

CN(C)CCO [2-(N,N-dimethylamino)ethanol] + O
Settings | mass density [kg/m3] | viscosity [mPa·s]
293.15 K, x1 = 0.0121 | 996.588 | –
293.15 K, x1 = 0.0218 | 995.236 | –
293.15 K, x1 = 0.0252 | 994.947 | –
293.15 K, x1 = 0.0359 | 994.033 | –
293.15 K, x1 = 0.0617 | 992.027 | –
293.15 K, x1 = 0.1009 | 988.909 | –
293.15 K, x1 = 0.2017 | 973.822 | –
293.15 K, x1 = 0.3033 | 956.823 | –
293.15 K, x1 = 0.4051 | 941.071 | –
293.15 K, x1 = 0.5077 | 927.808 | –
293.15 K, x1 = 0.6099 | 916.51 | –
293.15 K, x1 = 0.7652 | 903.034 | –
293.15 K, x1 = 0.895 | 894.185 | –
293.15 K, x1 = 1 | 887.816 | –
298.15 K, x1 = 0.0121 | 995.282 | –
298.15 K, x1 = 0.0218 | 993.748 | –
298.15 K, x1 = 0.0252 | 993.401 | –
298.15 K, x1 = 0.0359 | 992.24 | –
298.15 K, x1 = 0.0617 | 989.74 | –
298.15 K, x1 = 0.1009 | 985.747 | –
298.15 K, x1 = 0.2017 | 969.911 | –
298.15 K, x1 = 0.3033 | 952.768 | –
298.15 K, x1 = 0.4051 | 936.991 | –
298.15 K, x1 = 0.5077 | 923.722 | –
298.15 K, x1 = 0.6099 | 912.41 | –
298.15 K, x1 = 0.7652 | 898.903 | –
298.15 K, x1 = 0.895 | 889.991 | –
298.15 K, x1 = 1 | 883.578 | –
303.15 K, x1 = 0.0121 | 993.747 | –
303.15 K, x1 = 0.0218 | 992.024 | –
303.15 K, x1 = 0.0252 | 991.591 | –
303.15 K, x1 = 0.0359 | 990.239 | –
303.15 K, x1 = 0.0617 | 987.103 | –
303.15 K, x1 = 0.1009 | 982.49 | –
303.15 K, x1 = 0.2017 | 965.929 | –
303.15 K, x1 = 0.3033 | 948.646 | –
303.15 K, x1 = 0.4051 | 932.844 | –
303.15 K, x1 = 0.5077 | 919.567 | –
303.15 K, x1 = 0.6099 | 908.259 | –
303.15 K, x1 = 0.7652 | 894.723 | –
303.15 K, x1 = 0.895 | 885.767 | –
303.15 K, x1 = 1 | 879.315 | –
308.15 K, x1 = 0.0121 | 991.994 | –
308.15 K, x1 = 0.0218 | 990.035 | –
308.15 K, x1 = 0.0252 | 989.243 | –
308.15 K, x1 = 0.0359 | 988.048 | –
308.15 K, x1 = 0.0617 | 984.421 | –
308.15 K, x1 = 0.1009 | 979.144 | –
308.15 K, x1 = 0.2017 | 961.896 | –
308.15 K, x1 = 0.3033 | 944.47 | –
308.15 K, x1 = 0.4051 | 928.641 | –
308.15 K, x1 = 0.5077 | 915.367 | –
308.15 K, x1 = 0.6099 | 904.055 | –
308.15 K, x1 = 0.7652 | 890.503 | –
308.15 K, x1 = 0.895 | 881.507 | –
308.15 K, x1 = 1 | 875.017 | –
313.15 K, x1 = 0.0121 | 989.83 | –
313.15 K, x1 = 0.0218 | 987.566 | –
313.15 K, x1 = 0.0252 | 986.624 | –
313.15 K, x1 = 0.0359 | 985.713 | –
313.15 K, x1 = 0.0617 | 981.605 | –
313.15 K, x1 = 0.1009 | 975.714 | 2.669
313.15 K, x1 = 0.2017 | 957.808 | 5.071
313.15 K, x1 = 0.3033 | 940.237 | 6.593
313.15 K, x1 = 0.4051 | 924.379 | 6.58
313.15 K, x1 = 0.5077 | 911.114 | 5.885
313.15 K, x1 = 0.6099 | 899.803 | 4.784
313.15 K, x1 = 0.7652 | 886.233 | 3.467
313.15 K, x1 = 0.895 | 877.213 | 2.72
313.15 K, x1 = 1 | 870.686 | 2.238
318.15 K, x1 = 0.0121 | 986.678 | –
318.15 K, x1 = 0.0218 | 985.311 | –
318.15 K, x1 = 0.0359 | 983.206 | –
318.15 K, x1 = 0.0617 | 978.661 | –
318.15 K, x1 = 0.1009 | 972.197 | –
318.15 K, x1 = 0.2017 | 953.663 | –
318.15 K, x1 = 0.3033 | 935.946 | –
318.15 K, x1 = 0.4051 | 920.062 | –
318.15 K, x1 = 0.5077 | 906.806 | –
318.15 K, x1 = 0.6099 | 895.501 | –
318.15 K, x1 = 0.7652 | 881.923 | –
318.15 K, x1 = 0.895 | 872.876 | –
318.15 K, x1 = 1 | 866.316 | –
323.15 K, x1 = 0.0617 | 975.591 | –
323.15 K, x1 = 0.1009 | 968.595 | 1.957
323.15 K, x1 = 0.2017 | 949.451 | 3.487
323.15 K, x1 = 0.3033 | 931.598 | 4.435
323.15 K, x1 = 0.4051 | 915.685 | 4.433
323.15 K, x1 = 0.5077 | 902.436 | 4.044
323.15 K, x1 = 0.6099 | 891.144 | 3.393
323.15 K, x1 = 0.7652 | 877.562 | 2.573
323.15 K, x1 = 0.895 | 868.495 | 2.089
323.15 K, x1 = 1 | 861.902 | 1.756
328.15 K, x1 = 0.0617 | 972.399 | –
328.15 K, x1 = 0.1009 | 964.905 | –
328.15 K, x1 = 0.2017 | 945.194 | –
328.15 K, x1 = 0.3033 | 927.188 | –
328.15 K, x1 = 0.4051 | 911.247 | –
328.15 K, x1 = 0.5077 | 898.016 | –
328.15 K, x1 = 0.6099 | 886.733 | –
328.15 K, x1 = 0.7652 | 873.15 | –
328.15 K, x1 = 0.895 | 864.065 | –
328.15 K, x1 = 1 | 857.46 | –
333.15 K, x1 = 0.0617 | 969.09 | –
333.15 K, x1 = 0.1009 | 961.13 | 1.499
333.15 K, x1 = 0.2017 | 940.864 | 2.511
333.15 K, x1 = 0.3033 | 922.714 | 3.091
333.15 K, x1 = 0.4051 | 906.75 | 3.126
333.15 K, x1 = 0.5077 | 893.531 | 2.897
333.15 K, x1 = 0.6099 | 882.262 | 2.503
333.15 K, x1 = 0.7652 | 868.68 | 1.969
333.15 K, x1 = 0.895 | 859.595 | 1.641
333.15 K, x1 = 1 | 852.965 | 1.413
338.15 K, x1 = 0.0617 | 965.663 | –
338.15 K, x1 = 0.1009 | 957.253 | –
338.15 K, x1 = 0.2017 | 936.472 | –
338.15 K, x1 = 0.3033 | 918.174 | –
338.15 K, x1 = 0.4051 | 902.184 | –
338.15 K, x1 = 0.5077 | 888.98 | –
338.15 K, x1 = 0.6099 | 877.726 | –
338.15 K, x1 = 0.7652 | 864.16 | –
338.15 K, x1 = 0.895 | 855.072 | –
338.15 K, x1 = 1 | 848.423 | –
343.15 K, x1 = 0.0617 | 961.835 | –
343.15 K, x1 = 0.1009 | 953.308 | 1.186
343.15 K, x1 = 0.2017 | 932.014 | 1.896
343.15 K, x1 = 0.3033 | 913.564 | 2.27
343.15 K, x1 = 0.4051 | 897.541 | 2.302
343.15 K, x1 = 0.5077 | 884.364 | 2.152
343.15 K, x1 = 0.6099 | 873.127 | 1.909
343.15 K, x1 = 0.7652 | 859.582 | 1.551
343.15 K, x1 = 0.895 | 850.491 | 1.317
343.15 K, x1 = 1 | 843.844 | 1.156
348.15 K, x1 = 0.0617 | 957.228 | –
348.15 K, x1 = 0.1009 | 949.273 | –
348.15 K, x1 = 0.2017 | 927.488 | –
348.15 K, x1 = 0.3033 | 908.868 | –
348.15 K, x1 = 0.4051 | 892.846 | –
348.15 K, x1 = 0.5077 | 879.677 | –
348.15 K, x1 = 0.6099 | 868.45 | –
348.15 K, x1 = 0.7652 | 854.939 | –
348.15 K, x1 = 0.895 | 845.858 | –
348.15 K, x1 = 1 | 839.205 | –
353.15 K, x1 = 0.0617 | 952.666 | –
353.15 K, x1 = 0.1009 | 945.149 | 0.966
353.15 K, x1 = 0.2017 | 922.889 | 1.47
353.15 K, x1 = 0.3033 | 904.132 | 1.724
353.15 K, x1 = 0.4051 | 888.074 | 1.75
353.15 K, x1 = 0.5077 | 874.926 | 1.65
353.15 K, x1 = 0.6099 | 863.729 | 1.493
353.15 K, x1 = 0.7652 | 850.236 | 1.247
353.15 K, x1 = 0.895 | 841.163 | 1.078
353.15 K, x1 = 1 | 834.521 | 0.963
358.15 K, x1 = 0.0617 | 950.878 | –
358.15 K, x1 = 0.1009 | 940.935 | –
358.15 K, x1 = 0.2017 | 918.216 | –
358.15 K, x1 = 0.3033 | 899.314 | –
358.15 K, x1 = 0.4051 | 883.233 | –
358.15 K, x1 = 0.5077 | 870.101 | –
358.15 K, x1 = 0.6099 | 858.928 | –
358.15 K, x1 = 0.7652 | 845.484 | –
358.15 K, x1 = 0.895 | 836.414 | –
358.15 K, x1 = 1 | 829.779 | –
363.15 K, x1 = 0.0617 | 946.398 | –
363.15 K, x1 = 0.1009 | 936.638 | –
363.15 K, x1 = 0.2017 | 913.472 | –
363.15 K, x1 = 0.3033 | 894.425 | –
363.15 K, x1 = 0.4051 | 878.314 | –
363.15 K, x1 = 0.5077 | 865.197 | –
363.15 K, x1 = 0.6099 | 854.052 | –
363.15 K, x1 = 0.7652 | 840.646 | –
363.15 K, x1 = 0.895 | 831.596 | –
363.15 K, x1 = 1 | 824.969 | –
